Experimental data as given in patent US10448639B2, “Fungicidal pyrazoles” (FMC CORPORATION, priority 2009, dated 2019).

Tests used:
[1] = test system: Erysiphe graminis f sp. tritici; test: Test J: wheat powdery mildew, preventive spray on wheat seedlings, visual disease rating; settings: for pest or weed control at 200 µg/mL: Blumeria graminis, in Triticum aestivum, 192 h, read-out: Test J rating (% disease control); for Test J rating (% disease control) / Test J disease control rating: wheat powdery mildew, 100 = 100% disease control; for Test J disease control rating: sprayed the day before inoculation, 0 = no disease control relative to controls
[2] = test system: Puccinia recondita f. sp. tritici; test: Test H: wheat leaf rust, curative spray on inoculated wheat seedlings, visual disease rating; settings: for pest or weed control at 200 µg/mL: 144 h, read-out: Test H rating (% disease control); for Test H rating (% disease control) / Test H disease control rating: wheat leaf rust, 100 = 100% disease control; for Test H disease control rating: sprayed after inoculation, 0 = no disease control relative to controls
Source text: General protocol for preparing test suspensions for Tests A-J: the test compounds were first dissolved in acetone in an amount equal to 3% of the final volume and then suspended at the desired concentration (in ppm) in acetone and purified water (50/50 mix by volume) containing 250 ppm of the surfactant Trem® 014 (polyhydric alcohol esters). The resulting test suspensions were then used in Tests A-J. Spraying a 200 ppm test suspension to the point of run-off on the test plants was the equivalent of a rate of 500 g/ha. Unless otherwise indicated, the rating values indicate a 200 ppm test suspension was used. (An asterisk “*” next to the rating value indicates a 40 ppm test suspension was used.)
Wheat seedlings were inoculated with a spore suspension of Puccinia recondita f. sp. tritici (the causal agent of wheat leaf rust) and incubated in a saturated atmosphere at 20° C. for 24 h, and then moved to a growth chamber at 20° C. for 2 days. At the end of this time the test suspension was sprayed to the point of run-off, and then the seedlings were moved to a growth chamber at 20° C. for 6 days after which time visual disease ratings were made.

Septoria tritici = test: Test G: wheat leaf blotch, preventive spray on wheat seedlings, visual disease rating; settings: for pest or weed control at 200 µg/mL: Zymoseptoria tritici, in Triticum aestivum, 504 h, read-out: Test G rating (% disease control); for Test G rating (% disease control) / Test G disease control rating: wheat leaf blotch, 100 = 100% disease control; for Test G disease control rating: sprayed the day before inoculation, 0 = no disease control relative to controls
[3] = test system: Puccinia recondita f. sp. tritici; test: Test I: wheat leaf rust, preventive spray on wheat seedlings, visual disease rating; settings: for pest or weed control at 200 µg/mL: 192 h, read-out: Test I rating (% disease control); for Test I rating (% disease control) / Test I disease control rating: wheat leaf rust, 100 = 100% disease control; for Test I disease control rating: sprayed the day before inoculation, 0 = no disease control relative to controls
Botrytis cinerea = test: Test B: tomato Botrytis, preventive spray on tomato seedlings, visual disease rating; settings: for pest or weed control at 200 µg/mL: Botrytis cinerea, in Solanum lycopersicum, 120 h, read-out: Test B rating (% disease control); for Test B rating (% disease control) / Test B disease control rating: tomato Botrytis, 100 = 100% disease control; for Test B disease control rating: 0 = no disease control relative to controls
Alternaria solani = test: Test C: tomato early blight, preventive spray on tomato seedlings, visual disease rating; settings: for pest or weed control at 200 µg/mL: Alternaria solani, in Solanum lycopersicum, 168 h, read-out: Test C rating (% disease control); for Test C rating (% disease control) / Test C disease control rating: tomato early blight, 100 = 100% disease control; for Test C disease control rating: 0 = no disease control relative to controls
Septoria nodorum = test: Test F: Septoria glume blotch, preventive spray on wheat seedlings, visual disease rating; settings: for pest or weed control at 200 µg/mL: Parastagonospora nodorum, in Triticum aestivum, 192 h, read-out: Test F rating (% disease control); for Test F rating (% disease control) / Test F disease control rating: 100 = 100% disease control; for Test F disease control rating: 0 = no disease control relative to controls
[4] = preventive spray, 0 = no control
[5] = Septoria glume blotch on wheat, preventive spray, 0 = no control
[6] = 0 = no control relative to controls
[7] = curative, 0 = no control relative to controls
[8] = preventive, 0 = no control relative to controls
[9] = Septoria glume blotch, 0 = no control relative to controls

Row | SMILES | Test J rating (% disease control) [1, 4] | Test H rating (% disease control) ([2]; curative spray, 0 = no control) | Test G rating (% disease control) (Septoria tritici; [4]) | Test I rating (% disease control) [3, 4] | Test B rating (% disease control) (Botrytis cinerea; [4]) | Test C rating (% disease control) (Alternaria solani; [4]) | Test F rating (% disease control) (Septoria nodorum; [5]) | Test J rating (% disease control) [1, 6] | Test H rating (% disease control) [2, 7] | Test G rating (% disease control) (Septoria tritici; [6]) | Test I rating (% disease control) [3, 8] | Test B rating (% disease control) (Botrytis cinerea; [6]) | Test C rating (% disease control) (Alternaria solani; [6]) | Test F rating (% disease control) (Septoria nodorum; [9]) | also measured
1 | Cc1nn(C)c(Nc2c(F)cc(F)cc2F)c1-c1ccc(F)cc1Cl [Compound 18, 4-(2-chloro-4-fluorophenyl)-1,3-dimethyl-N-(2,4,6-trifluorophenyl)-1H-pyrazol-5-amine] |  |  |  |  |  |  |  |  |  |  |  |  |  |  | pest or weed control at 200 µg/mL [1]: 100%; pest or weed control at 200 µg/mL [2]: 99%; pest or weed control at 200 µg/mL (Septoria tritici): 95%; pest or weed control at 200 µg/mL [3]: 100%; pest or weed control at 200 µg/mL (Botrytis cinerea): 99%; pest or weed control at 200 µg/mL (Alternaria solani): 100%; pest or weed control at 200 µg/mL (Septoria nodorum): 99%
2 | Cc1ccc(-c2c(C)nn(C)c2Oc2ccc([N+](=O)[O-])cc2Cl)cc1 [compound 52] | 64% | 0% | 97% | 92% | 54% | 0% | 0% |  |  |  |  |  |  |  | 
3 | Cc1nn(C)c(Nc2ccc([N+](=O)[O-])cc2F)c1-c1ccc(F)cc1Cl [compound 344] |  |  |  |  |  |  |  |  |  |  |  |  |  |  | Test J disease control rating [1]: 100%; Test H disease control rating [2]: 62%; Test G disease control rating (Septoria tritici): 100%; Test I disease control rating [3]: 100%; Test B disease control rating (Botrytis cinerea): 100%; Test C disease control rating (Alternaria solani): 40%; Test F disease control rating (Septoria nodorum; Septoria glume blotch on wheat): 87%
4 | COc1cc(F)c(-c2c(C)nn(C)c2Oc2ccc(C)c(OC)c2)c(F)c1 [compound 249] |  |  |  |  |  |  |  | 100% | 0% | 99% | 96% | 40% | 0% | 0% | 
5 | Cc1nn(C)c(Oc2ccc(C#N)cc2Cl)c1-c1ccc(F)cc1Cl [Compound 139, 3-chloro-4-[[4-(2-chloro-4-fluorophenyl)-1,3-dimethyl-1H-pyrazol-5-yl]oxy]benzonitrile] |  |  |  |  |  |  |  |  |  |  |  |  |  |  | pest or weed control at 200 µg/mL [1]: 100%; pest or weed control at 200 µg/mL [2]: 69%; pest or weed control at 200 µg/mL (Septoria tritici): 100%; pest or weed control at 200 µg/mL [3]: 99%; pest or weed control at 200 µg/mL (Botrytis cinerea): 100%; pest or weed control at 200 µg/mL (Alternaria solani): 86%; pest or weed control at 200 µg/mL (Septoria nodorum): 100%
6 | Cc1nn(C)c(Nc2c(F)cc(F)cc2F)c1-c1c(F)cccc1F [compound 300] |  |  |  |  |  |  |  | 100% | 9% | 100% | 99% | 100% | 99% | 82% | 
7 | COc1ccc(Nc2c(-c3ccc(F)cc3F)c(C)nn2C)c(F)c1 [compound 228] |  |  |  |  |  |  |  | 99% | 0% | 99% | 80% | 99% | 99% | 0% | 
8 | Cc1nn(C)c(Oc2ccc(C#N)cc2F)c1-c1c(F)cccc1Cl [compound 342] |  |  |  |  |  |  |  |  |  |  |  |  |  |  | Test J disease control rating [1]: 100%; Test H disease control rating [2]: 0%; Test G disease control rating (Septoria tritici): 100%; Test I disease control rating [3]: 100%; Test B disease control rating (Botrytis cinerea): 100%; Test C disease control rating (Alternaria solani): 33%; Test F disease control rating (Septoria nodorum; Septoria glume blotch on wheat): 99%
9 | COc1cc(Oc2c(-c3c(F)cc(F)cc3F)c(C)nn2C)ccc1Br [compound 166] |  |  |  |  |  |  |  | 96% | 0% | 97% | 68% | 0% | 0% | 0% | 
10 | Cc1nn(C)c(Nc2cc(F)ccc2F)c1-c1ccc(F)cc1F [compound 226] |  |  |  |  |  |  |  | 100% | 28% | 96% | 91% | 99% | 0% | 0% | 
11 | Cc1nn(C)c(Nc2ccc(Cl)cc2)c1-c1c(F)cc(C#N)cc1F [compound 110] | 94% | 0% | 99% | 97% | 99% | 66% | 98% |  |  |  |  |  |  |  | 
12 | Cc1nn(C)c(Nc2c(F)cc(F)cc2Cl)c1-c1c(F)cccc1Cl [compound 298] |  |  |  |  |  |  |  | 100% | 0% | 100% | 100% | 100% | 93% | 87% | 
13 | COc1cc(F)c(-c2c(C)nn(C)c2Oc2cccc(C#N)c2)c(F)c1 [compound 223] |  |  |  |  |  |  |  | 100% | 0% | 100% | 100% | 96% | 9% | 99% | 
14 | Cc1nn(C)c(Oc2c(F)cc(C#N)cc2F)c1-c1ccc(Cl)cc1 [compound 44] | 0% | 7% | 96% | 9% | 82% | 0% | 0% |  |  |  |  |  |  |  | 
15 | Cc1nn(C)c(Nc2cc(F)ccc2F)c1-c1c(F)cc(C#N)cc1F [compound 137] | 100% | 8% | 99% | 100% | 96% | 97% | 78% |  |  |  |  |  |  |  | 
16 | COc1cc(F)c(Nc2c(-c3ccc(F)c(F)c3)c(C)nn2C)c(F)c1 [Compound 36, N-(2,6-difluoro-4-methoxyphenyl)-4-(3,4-difluorophenyl)-1,3-dimethyl-1H-pyrazol-5-amine] |  |  |  |  |  |  |  |  |  |  |  |  |  |  | pest or weed control at 200 µg/mL [1]: 98%; pest or weed control at 200 µg/mL [2]: 0%; pest or weed control at 200 µg/mL (Septoria tritici): 96%; pest or weed control at 200 µg/mL [3]: 96%; pest or weed control at 200 µg/mL (Botrytis cinerea): 100%; pest or weed control at 200 µg/mL (Alternaria solani): 0%; pest or weed control at 200 µg/mL (Septoria nodorum): 0%
17 | COc1cc(F)c(-c2c(C)nn(C)c2Oc2c(F)cc(N)cc2F)c(F)c1 [compound 77] | 0% | 6% | 95% | 97% | 99% | 0% | 0% |  |  |  |  |  |  |  | 
18 | Cc1nn(C)c(Nc2c(F)cc(F)cc2F)c1-c1ccc(Cl)cc1 [compound 28] | 0% | 7% | 96% | 91% | 99% | 0% | 0% |  |  |  |  |  |  |  | 
19 | Cc1nn(C)c(Nc2ccc(F)cc2)c1-c1ccccc1C(F)(F)F [compound 237] |  |  |  |  |  |  |  | 97% | 0% | 97% | 68% | 99% | 0% | 0% | 
20 | COc1cc(F)c(-c2c(C)nn(C)c2Oc2ccc(Cl)cc2Cl)c(F)c1 [compound 40] | 99% | 92% | 94% | 99% | 99% | 0% | 0% |  |  |  |  |  |  |  | 
21 | Cc1nn(C)c(Nc2cccc(Cl)c2)c1-c1c(F)cc(C#N)cc1F [compound 115] | 0% | 0% | 100% | 91% | 99% | 0% | 0% |  |  |  |  |  |  |  | 
